Test results reported in article PMC9143003, “Neutrophil Immunomodulatory Activity of Farnesene, a Component of Artemisia dracunculus Essential Oils” (Pharmaceuticals, 2022).
Read-outs that look alike come from different tables or passages of the source.

Key:
human neutrophils [1] = experiment: Chemotaxis assay toward fMLF (ChemoTx chambers); assay type: cell-based; details: pure compounds, 30 min pretreatment, 1 nM fMLF; for IC50: read-out: Inhibition of fMLF-induced neutrophil chemotaxis IC50
Description: (§1) We obtained human neutrophils using blood collected from healthy donors. Blood collection was approved by the Institutional Review Board at Montana State University (Protocol #MQ041017). Neutrophils were isolated as described previously. The isolated neutrophils were resuspended in HBSS^–. Neutrophil preparations were routinely >95% pure and >98% viable, as determined by light microscopy and trypan blue exclusion, respectively.
To evaluate effects of samples on neutrophil migration, we resuspended neutrophils in HBSS^+ containing 2% (v/v) heat-inactivated FBS (2 × 10^6 cells/mL). We analyzed chemotaxis using 96-well ChemoTx chambers (Neuroprobe, Gaithersburg, MD). The neutrophils were first preincubated with the indicated concentrations of test samples at room temperature for 30 min. The pretreated cells were then pipetted into the chamber upper wells (4 × 10^4 cells/well). The lower wells contained 30 µL of HBSS^+ with 2% (v/v) heat-inactivated FBS, the indicated test samples or control 1% DMSO, and 1 nM fMLF as the chemoattractant. Three lower wells were reserved for background controls (DMSO treated cells in the upper wells and DMSO without fMLF in the lower wells). We allowed the cells to migrate through the polycarbonate membrane filter for 60 min at 37 °C/5% CO2. We determined the number of migrated cells by measuring ATP in lysates of transmigrated cells and comparing this to a standard curve obtained with known neutrophil numbers, as described previously. Calculation of median effective concentrations (IC50) was performed by nonlinear regression analysis of the dose-response curves.

[2] = tested on: fMLF-stimulated human neutrophils (FPR1 agonist fMLF); experiment: Inhibition of fMLF-induced [Ca2+]i; assay type: cell-based; details: pure compounds, 10 min pretreatment, 5 nM fMLF, read-out: Inhibition of [Ca^2+]i fMLF-Induced IC50
Description: as §1
(§2) Changes in intracellular Ca^2+ concentrations ([Ca^2+]i) were monitored with a FlexStation 3 (Molecular Devices, Sunnyvale, CA, USA). For these assays, neutrophils were loaded with 1.25 μg/mL Fluo-4AM and incubated in the dark at 37 °C for 30 min. The cells were then washed with HBSS^-. The dye-loaded cells were resuspended in HBSS^+ and pipetted into the wells of black microtiter plates at 2 × 10^5 cells/well. To measure the direct effects of samples on [Ca^2+]i, the test samples were added to the wells (final concentration of DMSO was 1%), and fluorescence was monitored (λex = 485 nm, λem = 538 nm). Changes in fluorescence were monitored every 5 s at room temperature for 240 s. To evaluate the inhibitory effects of the test samples, the samples were added to the wells and incubated for 10 min, with the subsequent addition of 5 nM fMLF, 5 nM WKYMVM, or 25 nM IL-8. Responses were normalized to the response induced by control 5 nM fMLF, 5 nM WKYMVM, or 25 nM IL-8 alone without pretreatment. These responses were assigned as 100%. To calculate median effective concentrations (EC50 or IC50), we used curve fitting (at least five or six points) and nonlinear regression analysis of the dose–response curves. Curve fitting was performed with Prism 9 (GraphPad Software, Inc., San Diego, CA, USA).

human neutrophils [3] = experiment: Ca2+ mobilization assay, direct activation of [Ca2+]i; assay type: cell-based; details: pure compounds; for Effect on human neutrophil Ca^2+ flux (in words): direct effect; for EC50: human neutrophils, mean ± SD of three experiments, read-out: Activation of [Ca^2+]i EC50
Description: as §1, §2

[4] = tested on: human THP-1 monocytic cells; experiment: Cytotoxicity assay (CellTiter-Glo), THP-1; assay type: cell-based
Procedure: Human THP-1 monocytic cells obtained from ATCC (Manassas, VA, USA) were cultured in RPMI 1640 medium (Mediatech Inc., Herndon, VA, USA) supplemented with 10% (v/v) FBS, 100 μg/mL streptomycin, and 100 U/mL penicillin. […] After incubation, we added substrate.

[5] = tested on: WKYMVM-stimulated human neutrophils (FPR2 agonist WKYMVM); experiment: Inhibition of WKYMVM-induced [Ca2+]i; assay type: cell-based; details: pure compounds, 10 min pretreatment, 5 nM WKYMVM, read-out: Inhibition of [Ca^2+]i WKYMVM-Induced IC50
Description: as §1, §2

human neutrophils [6] = tested on: human neutrophils; design: method as in PMID 27586050, PMID 25959257; details: previous analysis; cited from earlier work
human neutrophils [7] = experiment: Cytotoxicity assay (CellTiter-Glo), neutrophils; details: pure compounds, 90 min incubation, no cytotoxicity = IC50 > 55 µM
Procedure: We analyze cytotoxicity in human neutrophils or THP-1 monocytic cells. Cytotoxicity was analyzed using a CellTiter-Glo Luminescent Cell Viability Assay Kit (Promega, Madison, WI, USA). Briefly, the cells were incubated (10^4 cells/well) with the indicated concentrations of essential oil or compound for 90 min (for neutrophils) or 24 h (for THP-1 cells) at 37 °C/5% CO2. After incubation, we added substrate. The samples were analyzed using a Fluoroscan Ascent FL microplate reader.

FPR1 = tested on: FPR1; design: method as in PMID 16972170, PMID 11211928, PMID 11853704; details: cited from earlier work
[8] = tested on: IL-8-stimulated human neutrophils; experiment: Inhibition of IL-8-induced [Ca2+]i; assay type: cell-based; details: 10 min pretreatment, 25 nM human IL-8; read-out: Inhibition of IL-8 induced neutrophil [Ca^2+]i IC50
Description: as §1
as §2, with “Responses were normalized to the response induced by control 5 nM fMLF, 5 nM WKYMVM, or 25 nM IL-8 alone without pretreatment. These responses were assigned as 100%. To calculate median effective concentrations (EC50 or IC50), we used curve fitting (at least five or six points) and nonlinear regression analysis of the dose–response curves. Curve fitting was performed with Prism 9 (GraphPad Software, Inc., San Diego, CA, USA).” left out

## (±)-Bornyl acetate
Human neutrophils [1]
  IC50: 11.9 ± 1.9 µM
[2]
  IC50: 42.6 ± 9.7 µM
Human neutrophils [3]
  Effect on human neutrophil Ca^2+ flux (in words): weak activators
  EC50: 50.1 ± 11.5 µM
[4]
  Viability of human THP-1 monocytic cells: did not affect the viability
[5]
  IC50: 19.1 ± 0.1 µM

## Cc1ccc(C(C)(C)O)cc1 [p-cymen-8-ol]
Human neutrophils [6]
  Effect on human neutrophil [Ca^2+]i (in words): no effect

## C=CC(C)(O)CCC=C(C)C (centres unmarked) [linalool]
Human neutrophils [6]
  Effect on human neutrophil [Ca^2+]i (in words): no effect

## CC1=CCC2CC1C2(C)C (stereo not drawn) [α-pinene]
Human neutrophils [6]
  Effect on human neutrophil [Ca^2+]i (in words): no effect

## CC1(C)[C@H]2CC[C@]1(C)C(=O)C2 [(−)-Camphor]
Human neutrophils [7]
  Cytotoxicity: Nontoxic
[2]; Homo sapiens, Neutrophil
  IC50: > 55 µM
Human neutrophils [3]; Neutrophil
  EC50: > 55 µM
Human neutrophils [3]
  Effect on human neutrophil Ca^2+ flux (in words): did not affect human neutrophil Ca^2+ flux
[5]; Homo sapiens, Neutrophil
  IC50: > 55 µM

## CC12CCC(CC1)C(C)(C)O2 [1,8-Cineole]
Human neutrophils [7]
  Cytotoxicity: Nontoxic
[2]; Homo sapiens, Neutrophil
  IC50: > 55 µM
Human neutrophils [3]; Neutrophil
  EC50: > 55 µM
Human neutrophils [3]
  Effect on human neutrophil Ca^2+ flux (in words): did not affect human neutrophil Ca^2+ flux
[5]; Homo sapiens, Neutrophil
  IC50: > 55 µM

## CC1=CC(=O)C(C(C)C)CC1 (centres unmarked) [Piperitone]
Human neutrophils [7]
  Cytotoxicity: Nontoxic
[2]; Homo sapiens, Neutrophil
  IC50: > 55 µM
Human neutrophils [3]; Neutrophil
  EC50: > 55 µM
Human neutrophils [3]
  Effect on human neutrophil Ca^2+ flux (in words): did not affect human neutrophil Ca^2+ flux
[5]; Homo sapiens, Neutrophil
  IC50: > 55 µM

## COc1cc(O)c(C(C)=O)c(OC)c1 [Xanthoxylin]
Human neutrophils [7]
  Cytotoxicity: Nontoxic
Human neutrophils [1]
  Inhibition of fMLF-induced neutrophil chemotaxis IC50: did not affect this response
[2]; Homo sapiens, Neutrophil
  IC50: 27.2 ± 6.6 µM
Human neutrophils [3]; Neutrophil
  EC50: 53.3 ± 5 µM
Human neutrophils [3]
  Effect on human neutrophil Ca^2+ flux (in words): weak activators
[4]; 24 h incubation
  Viability of human THP-1 monocytic cells: did not affect the viability
[5]; Homo sapiens, Neutrophil
  IC50: 52.7 ± 11.2 µM

## C=CCc1ccc(OC)c(OC)c1 [methyl eugenol]
Human neutrophils [6]
  Effect on human neutrophil [Ca^2+]i (in words): no effect

## Cc1ccc(C(C)C)cc1 [p-cymene]
Human neutrophils [6]
  Effect on human neutrophil [Ca^2+]i (in words): no effect

## C[C@H](CCC(=O)O)[C@H]1CC[C@H]2[C@@H]3[C@H](O)C[C@@H]4C[C@H](O)CC[C@]4(C)[C@H]3CC[C@]12C [chenodeoxycholic acid]
FPR1
  Concentrations at which FPR1 is antagonized: > 100 µM

## C=C1C2CCC(C2)C1(C)C (centres unmarked) [camphene]
Human neutrophils [6]
  Effect on human neutrophil [Ca^2+]i (in words): no effect

## C=CCc1ccc(OC)cc1 [methyl chavicol]
Human neutrophils [6]
  Effect on human neutrophil [Ca^2+]i (in words): no effect

## Farnesene
Human neutrophils [1]
  IC50: 3.3 ± 1.4 µM
[8]
  IC50: 2.6 µM
[2]
  IC50: 1.1 ± 0.2 µM
Human neutrophils [3]
  Effect on human neutrophil Ca^2+ flux (in words): weak activators
  EC50: 28.5 ± 2.6 µM
[4]
  Viability of human THP-1 monocytic cells: did not affect the viability
[5]
  IC50: 1.4 ± 0.5 µM

## CC12CCC(CC1=O)C2(C)C (stereo not drawn) [(+)-Camphor]
[2]
  IC50: > 55 µM
Human neutrophils [3]
  Effect on human neutrophil Ca^2+ flux (in words): did not affect human neutrophil Ca^2+ flux
  EC50: > 55 µM
[5]
  IC50: > 55 µM

## CC1=CCC(O)(C(C)C)CC1 (centres unmarked) [terpinen-4-ol]
Human neutrophils [6]
  Effect on human neutrophil [Ca^2+]i (in words): no effect

## CC1=CCC(=C(C)C)CC1 [terpinolene]
Human neutrophils [6]
  Effect on human neutrophil [Ca^2+]i (in words): no effect

## C[C@H](CCC(=O)O)[C@H]1CC[C@H]2[C@@H]3CC[C@@H]4C[C@H](O)CC[C@]4(C)[C@H]3C[C@H](O)[C@]12C [deoxycholic acid]
FPR1
  Concentrations at which FPR1 is antagonized: > 100 µM
